Results taken from patent US20210196724A1, “BIARYL COMPOSITIONS AND METHODS FOR MODULATING A KINASE CASCADE” (Athenex, Inc., priority 2016, published 2021).

Legend:
Format in all cases: cell-based
Settings in all cases: 72 h
HCT-15 cells = assay: CellTiter-Glo cell viability, HCT-15
Procedure: (§1) The cell viability of 50 cancer cell lines was studied after treatment with Compound 121. Inhibition concentration values at 50% (IC50) were determined using CellTiter-Glo luminescent cell viability assay after incubation with different compound concentrations. GI50 values were determined according to the examples described above. Each cell line was treated with Compound 121, a standard chemotherapy drug as a reference control, and culture medium as a vehicle control.
(§2) All cells were cultured in media supplemented with 10-15% FBS at 37° C. in the presence of 5% CO2 and at 95% humidity. The culture medium was purchased from GIBCO or Sigma, USA. Cisplatin was chosen as the reference control and purchased from Hospira Australia Pty Ltd. The cell lines studied are presented in Table 5.
(§3) Cells were harvested during a logarithmic growth period and cell number count was determined using Count-star. Cell concentrations were adjusted to 4.44×10^4 cells/mL with respective culture medium. 90 μL of cell suspensions were added to two 96-well plates (plates A and B) with a final cell density of 4×10^3 cells/well.
(§4) 10 μL of culture medium was added to each well of plate A for TO reading. The plate was allowed to equilibrate at room temperature for approximately 30 min. 50 μL of CellTiter-Glo was added to each well and the contents were mixed for 5 min on an orbital shaker to induce cell lysis. The plate was allowed to incubate at room temperature for 20 min to stabilize luminescent signal.
(§5) 10 μM Compound 121 in media was serially diluted 3.16-fold to achieve 9 dose levels. Similarly, 100 μM reference control in media was serially diluted 3.16-fold to prepare reference control solutions. 10 μL drug solution and 10 μL of reference control was dispensed into each well in plate B.
(§6) Test plate B was incubated for 72 h in a humidified incubator at 37° C. in the presence of 5% CO2 and then subjected to CTG assay. The plate was allowed to equilibrate at room temperature for about 30 min. 50 μL of CellTiter-Glo was added to each well and the contents were mixed for 5 min on an orbital shaker to induce cell lysis. The plate was allowed to incubate at room temperature for 20 min to stabilize luminescent signal.
(§7) IC50 and GI50 values for each of the 50 cell lines are presented in Table 6 and were calculated based on the dose-response curves depicted in FIGS. 1-50. The dose-response curves were fitted using nonlinear regression model with a sigmoidal dose response. The formula for calculating survival rate was calculated by the formula:
(§8) Survival rate (%)=(LumTest article−LumMedium control)/(LumNone treated−LumMedium control)×100.

AsPC-1 cells = assay: CellTiter-Glo cell viability, AsPC-1
Procedure: as §1, §2, §3, §4, §5, §6, §7, §8

NCI-H209 cells = assay: CellTiter-Glo cell viability, NCI-H209
Procedure: as §1, §2, §3, §4, §5, §6, §7, §8

HT-29 cells = assay: CellTiter-Glo cell viability, HT-29
Procedure: as §1, §2, §3, §4, §5, §6, §7, §8

MDA-MB-453 cells = assay: CellTiter-Glo cell viability, MDA-MB-453
Procedure: as §1, §2, §3, §4, §5, §6, §7, §8

MX-1 cells = assay: CellTiter-Glo cell viability, MX-1
Procedure: as §1, §2, §3, §4, §5, §6, §7, §8

AN3 CA cells = assay: CellTiter-Glo cell viability, AN3 CA
Procedure: as §1, §2, §3, §4, §5, §6, §7, §8

786-O cells = assay: CellTiter-Glo cell viability, 786-O
Procedure: as §1, §2, §3, §4, §5, §6, §7, §8

A-172 cells = assay: CellTiter-Glo cell viability, A-172
Procedure: as §1, §2, §3, §4, §5, §6, §7, §8

HL-60 cells = assay: CellTiter-Glo cell viability, HL-60
Procedure: as §1, §2, §3, §4, §5, §6, §7, §8

JEG-3 cells = assay: CellTiter-Glo cell viability, JEG-3
Procedure: as §1, §2, §3, §4, §5, §6, §7, §8

TJ905 cells = assay: CellTiter-Glo cell viability, TJ905
Procedure: as §1, §2, §3, §4, §5, §6, §7, §8

KARPAS-299 cells = assay: CellTiter-Glo cell viability, KARPAS-299
Procedure: as §1, §2, §3, §4, §5, §6, §7, §8

SK-N-FI cells = assay: CellTiter-Glo cell viability, SK-N-FI
Procedure: as §1, §2, §3, §4, §5, §6, §7, §8

FaDu cells = assay: CellTiter-Glo cell viability, FaDu
Procedure: as §1, §2, §3, §4, §5, §6, §7, §8

HT-1376 cells = assay: CellTiter-Glo cell viability, HT-1376
Procedure: as §1, §2, §3, §4, §5, §6, §7, §8

OVCAR-3 cells = assay: CellTiter-Glo cell viability, OVCAR-3
Procedure: as §1, §2, §3, §4, §5, §6, §7, §8

HeLa cells = assay: CellTiter-Glo cell viability, HeLa
Procedure: as §1, §2, §3, §4, §5, §6, §7, §8

HuCCT1 cells = assay: CellTiter-Glo cell viability, HuCCT1
Procedure: as §1, §2, §3, §4, §5, §6, §7, §8

NCI-H1975 cells = assay: CellTiter-Glo cell viability, NCI-H1975
Procedure: as §1, §2, §3, §4, §5, §6, §7, §8

HuT 78 cells = assay: CellTiter-Glo cell viability, HuT 78
Procedure: as §1, §2, §3, §4, §5, §6, §7, §8

[1] = top conc. 10 μM Compound 121, 100 μM cisplatin

## N.N.[Cl][Pt][Cl] [Cisplatin, reference compound]
HCT-15 cells; read-out: Absolute GI50
  GI50: 4.27 µM
HCT-15 cells; read-out: Absolute IC50
  IC50: 4.76 µM
HCT-15 cells; [1]
  % inhibition at top conc.: 98.22%
AsPC-1 cells; read-out: Absolute GI50
  GI50: 2.73 µM
AsPC-1 cells; read-out: Absolute IC50
  IC50: 3.31 µM
AsPC-1 cells; [1]
  % inhibition at top conc.: 72.39%
NCI-H209 cells; read-out: Absolute GI50
  GI50: 0.14 µM
NCI-H209 cells; read-out: Absolute IC50
  IC50: 0.23 µM
NCI-H209 cells; [1]
  % inhibition at top conc.: 98.81%
HT-29 cells; read-out: Absolute GI50
  GI50: 8.78 µM
HT-29 cells; read-out: Absolute IC50
  IC50: 9.8 µM
HT-29 cells; [1]
  % inhibition at top conc.: 89.05%
MDA-MB-453 cells; read-out: Absolute GI50
  GI50: 7.05 µM
MDA-MB-453 cells; read-out: Absolute IC50
  IC50: 9.51 µM
MDA-MB-453 cells; [1]
  % inhibition at top conc.: 96.82%
MX-1 cells; read-out: Absolute GI50
  GI50: 5.69 µM
MX-1 cells; read-out: Absolute IC50
  IC50: 7.12 µM
MX-1 cells; [1]
  % inhibition at top conc.: 98.97%
AN3 CA cells; read-out: Absolute GI50
  GI50: 3.68 µM
AN3 CA cells; read-out: Absolute IC50
  IC50: 4.38 µM
AN3 CA cells; [1]
  % inhibition at top conc.: 99.95%
786-O cells; read-out: Absolute GI50
  GI50: 1.6 µM
786-O cells; read-out: Absolute IC50
  IC50: 1.77 µM
786-O cells; [1]
  % inhibition at top conc.: 98.46%
A-172 cells; read-out: Absolute GI50
  GI50: 15.9 µM
A-172 cells; read-out: Absolute IC50
  IC50: 20.3 µM
A-172 cells; [1]
  % inhibition at top conc.: 93.09%
HL-60 cells; read-out: Absolute GI50
  GI50: 1.34 µM
HL-60 cells; read-out: Absolute IC50
  IC50: 1.46 µM
HL-60 cells; [1]
  % inhibition at top conc.: 99.99%
JEG-3 cells; read-out: Absolute GI50
  GI50: 5.5 µM
JEG-3 cells; read-out: Absolute IC50
  IC50: 9.4 µM
JEG-3 cells; [1]
  % inhibition at top conc.: 99.90%
TJ905 cells; read-out: Absolute GI50
  GI50: 6.56 µM
TJ905 cells; read-out: Absolute IC50
  IC50: 9.85 µM
TJ905 cells; [1]
  % inhibition at top conc.: 80.57%
KARPAS-299 cells; read-out: Absolute GI50
  GI50: 1.49 µM
KARPAS-299 cells; read-out: Absolute IC50
  IC50: 1.63 µM
KARPAS-299 cells; [1]
  % inhibition at top conc.: 99.99%
SK-N-FI cells; read-out: Absolute GI50
  GI50: 5.8 µM
SK-N-FI cells; read-out: Absolute IC50
  IC50: 9.26 µM
SK-N-FI cells; [1]
  % inhibition at top conc.: 99.77%
FaDu cells; read-out: Absolute GI50
  GI50: 1.96 µM
FaDu cells; read-out: Absolute IC50
  IC50: 2.25 µM
FaDu cells; [1]
  % inhibition at top conc.: 98.16%
HT-1376 cells; read-out: Absolute GI50
  GI50: 2.64 µM
HT-1376 cells; read-out: Absolute IC50
  IC50: 3.26 µM
HT-1376 cells; [1]
  % inhibition at top conc.: 91.76%
OVCAR-3 cells; read-out: Absolute GI50
  GI50: 3.81 µM
OVCAR-3 cells; read-out: Absolute IC50
  IC50: 4.29 µM
OVCAR-3 cells; [1]
  % inhibition at top conc.: 91.14%
HeLa cells; read-out: Absolute GI50
  GI50: 0.3 µM
HeLa cells; [1]
  % inhibition at top conc.: 99.60%
HuCCT1 cells; read-out: Absolute GI50
  GI50: 6.59 µM
HuCCT1 cells; read-out: Absolute IC50
  IC50: 8.44 µM
HuCCT1 cells; [1]
  % inhibition at top conc.: 90.42%
NCI-H1975 cells; read-out: Absolute GI50
  GI50: 5.52 µM
NCI-H1975 cells; read-out: Absolute IC50
  IC50: 6.93 µM
NCI-H1975 cells; [1]
  % inhibition at top conc.: 98.75%
HuT 78 cells; read-out: Absolute GI50
  GI50: 0.5 µM
HuT 78 cells; read-out: Absolute IC50
  IC50: 0.66 µM
HuT 78 cells; [1]
  % inhibition at top conc.: 98.27%
